Measured values taken from PubChem BioAssay AID1963963 (Molecular Pharmacology Branch, DTP, NCI, 2024).

Tested on: 958667-338-R-J2-PDC tumor spheroids viability
Experiment: Anticancer human tumor 958667-338-R-J2-PDC patient-derived colon adenocarcinoma cell line growth inhibition [PI3K]
Details: spheroids with HUVEC and MSC; for IC50: curve of first compound; for viability, T/C: stronger effect = lower value
Source text: Combinatorial screen of targeted agents with the PI3K inhibitors inavolisib, alpelisib, duvelisib, and copanlisib in multi-cell type tumor spheroids
A high-throughput screen of multi-cell type tumor spheroids was designed to identify active combinations of targeted small molecules and PI3K pathway inhibitors. Complex spheroids include a stromal component modeled by human endothelial cells (HUVEC) and fibroblasts modeled by human mesenchymal stem cells (MSCs). The concentration ranges selected for each drug and investigational agent were based upon clinically achievable concentrations if the clinical Cmax of the agent was known.
Compounds. The drugs and investigational agents: inavolisib (NSC800729), alpelisib (NSC765974), duvelisib (NSC772469), copanlisib (NSC816437), ipatasertib (NSC767898), afuresertib (NSC778305), talazoparib (NSC767125), sapanisertib (NSC764658), selumetinib (NSC741078), tovorafenib (DAY101, NSC766906), vemurafenib (NSC761431), ravoxertinib (NSC781343), sotorasib (NSC818433), MRTX1133 (NSC 836407), abemaciclib (NSC 768073), palbociclib (NSC758247), venetoclax (NSC 766270), SY5609 (NSC837396), enzalutamide (NSC755605), and darolutamide (NSC825331), were obtained from the National Cancer Institute (NCI) Developmental Therapeutics Program Chemical Repository. The FDA-approved anticancer drug set is available from the NCI Developmental Therapeutics Program. […] The stock solutions were prepared in dimethyl sulfoxide (DMSO, Sigma-Aldrich, St. Louis, MO, cat. D2650) at 800-fold the tested concentration and stored at -70 degrees C prior to their use. All drugs and investigational agents were tested over a range starting from a high concentration at or near the clinical Cmax and decreasing in half-log increments. If the clinical Cmax for an agent had not been determined, the highest concentration tested was 10 microM.
Cell Culture. All cells were maintained in an incubator at 37 degrees C and 5% CO2 with 95% humidity. The PDC lines were cultured according to standard operating procedures established by the NCI PDMR (https://pdmr.cancer.gov/sops/default.htm). All PDCs were thawed and cultured in Matrigel-coated flasks prepared with a working solution of 1X Ham's F-12 nutrient mix, without supplementation (Invitrogen, Waltham, MA, cat. 11765054), 100 U/mL penicillin-streptomycin (Invitrogen, cat. 15140122), and 2.5% Matrigel (Corning Inc., Corning, NY, cat. 354248) for the first three passages. The 354836-022-R-J1-PDC, 475296-252-R-J1-PDC, and 997726-040-R-J2-PDC lines were cultured in 6A media, which includes advanced DMEM/F-12 (Thermo Fisher Scientific, cat. 12634028), 10 mM HEPES (Thermo Fisher Scientific, cat. 15630080), 1X GlutaMAX supplement (Thermo Fisher Scientific, cat. 35050061), 0.1 mg/mL primocin (InvivoGen, San Diego, CA, cat. ant-pm-2), 10% defined fetal bovine serum, heat inactivated (HyClone Laboratories Inc., Logan, UT, cat. SH30070.03HI), 50% L-WRN conditioned media (ATCC, cat. CRL-3276), 1.25 mM N-Acetyl-L-cysteine (Sigma-Aldrich, cat. A9165), 10 mM nicotinamide (Sigma-Aldrich, cat. N0636), 1X B-27 supplement (Thermo Fisher Scientific, cat. 17504044), 1X N-2 supplement (Thermo Fisher Scientific, cat. 17502048), and 10 microM Y-27632 dihydrochloride (Tocris Bioscience, Bristol, United Kingdom, cat. 1254). The 624824-186-R-J2-PDC line was cultured in 6C/Colon 1B media, which includes all 6A media components plus 50 ng/mL human EGF recombinant protein (Thermo Fisher Scientific, cat. PHG0311). […]

[1] = second compound 0.00316 µM, first compound 0.0316 µM
[2] = second compound 0.00316 µM, first compound 0.1 µM
[3] = second compound 0.01 µM, first compound 0.0316 µM
[4] = second compound 0.01 µM, first compound 0.1 µM
[5] = second compound 0.0316 µM, first compound 0.0316 µM
[6] = second compound 0.0316 µM, first compound 0.1 µM
[7] = second compound 0.1 µM, first compound 0.0316 µM
[8] = second compound 0.1 µM, first compound 0.1 µM
[9] = second compound 0.316 µM, first compound 0.0316 µM
[10] = second compound 0.316 µM, first compound 0.1 µM
[11] = second compound 1 µM, first compound 0.0316 µM
[12] = second compound 1 µM, first compound 0.1 µM
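Further: spheroids exposed to compounds for seven days before readout.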

For `Cn1ncc(Cl)c1-c1cc(C(=O)NC(CN)Cc2cccc(F)c2)sc1Cl` (centres undefined) + CC(Nc1ccc2c(c1)OCCn1cc(N3C(=O)OCC3C(F)F)nc1-2)C(N)=O, the IC50 (second compound 0.00316 µM) was 3020 nM, the IC50 (second compound 0.01 µM) was 2350 nM and the IC50 (second compound 0.0316 µM) was 2710 nM. For the same compound, the IC50 (second compound 0.1 µM) was 1950 nM, the IC50 (second compound 0.316 µM) was 944 nM and the IC50 (second compound 1 µM) was less than 31.6 nM. The viability, T/C [1] was 98.9%, the viability, T/C [2] was 94.4% and the viability, T/C (second compound 0.00316 µM, first compound 0.316 µM) was 96.2%. It also gave a viability, T/C (second compound 0.00316 µM, first compound 1 µM) of 76.3%, a viability, T/C (second compound 0.00316 µM, first compound 3.16 µM) of 49.4% and a viability, T/C (second compound 0.00316 µM, first compound 10 µM) of 41.6%. The viability, T/C [3] was 109%, the viability, T/C [4] was 104% and the viability, T/C (second compound 0.01 µM, first compound 0.316 µM) was 104%. It also gave a viability, T/C (second compound 0.01 µM, first compound 1 µM) of 75%, a viability, T/C (second compound 0.01 µM, first compound 3.16 µM) of 41.8% and a viability, T/C (second compound 0.01 µM, first compound 10 µM) of 27.7%. The viability, T/C [5] was 106%, the viability, T/C [6] was 91.2% and the viability, T/C (second compound 0.0316 µM, first compound 0.316 µM) was 94.2%. It also gave a viability, T/C (second compound 0.0316 µM, first compound 1 µM) of 85.8%, a viability, T/C (second compound 0.0316 µM, first compound 3.16 µM) of 44.3% and a viability, T/C (second compound 0.0316 µM, first compound 10 µM) of 29.5%. The viability, T/C [7] was 95.8%, the viability, T/C [8] was 89% and the viability, T/C (second compound 0.1 µM, first compound 0.316 µM) was 79.4%. The viability, T/C (second compound 0.1 µM, first compound 1 µM) was 65.7%, the viability, T/C (second compound 0.1 µM, first compound 3.16 µM) was 38.4% and the viability, T/C (second compound 0.1 µM, first compound 10 µM) was 25.6%. The viability, T/C [9] was 54.1%, the viability, T/C [10] was 79.6% and the viability, T/C (second compound 0.316 µM, first compound 0.316 µM) was 63%. For the same compound, the viability, T/C (second compound 0.316 µM, first compound 1 µM) was 48.5%, the viability, T/C (second compound 0.316 µM, first compound 3.16 µM) was 31.8% and the viability, T/C (second compound 0.316 µM, first compound 10 µM) was 24.9%. It also gave a viability, T/C [11] of 46.1%, a viability, T/C [12] of 54.1% and a viability, T/C (second compound 1 µM, first compound 0.316 µM) of 45.1%. The viability, T/C (second compound 1 µM, first compound 1 µM) was 46%, the viability, T/C (second compound 1 µM, first compound 3.16 µM) was 31.2% and the viability, T/C (second compound 1 µM, first compound 10 µM) was 20.8%.
`Cn1ncnc1[C@H]1c2n[nH]c(=O)c3cc(F)cc(c23)N[C@@H]1c1ccc(F)cc1` + CC(Nc1ccc2c(c1)OCCn1cc(N3C(=O)OCC3C(F)F)nc1-2)C(N)=O gave an IC50 (second compound 0.00316 µM) greater than 100 nM, an IC50 (second compound 0.01 µM) greater than 100 nM and an IC50 (second compound 0.0316 µM) greater than 100 nM. It also gave an IC50 (second compound 0.1 µM) greater than 100 nM, an IC50 (second compound 0.316 µM) greater than 100 nM and an IC50 (second compound 1 µM) greater than 100 nM. For the same compound, the viability, T/C (second compound 0.00316 µM, first compound 0.000316 µM) was 111%, the viability, T/C (second compound 0.00316 µM, first compound 0.001 µM) was 107% and the viability, T/C (second compound 0.00316 µM, first compound 0.00316 µM) was 105%. It also gave a viability, T/C (second compound 0.00316 µM, first compound 0.01 µM) of 101%, a viability, T/C [1] of 112% and a viability, T/C [2] of 95.9%. It also gave a viability, T/C (second compound 0.01 µM, first compound 0.000316 µM) of 93.8%, a viability, T/C (second compound 0.01 µM, first compound 0.001 µM) of 87.4% and a viability, T/C (second compound 0.01 µM, first compound 0.00316 µM) of 88.5%. The viability, T/C (second compound 0.01 µM, first compound 0.01 µM) was 117%, the viability, T/C [3] was 85.7% and the viability, T/C [4] was 114%. It also gave a viability, T/C (second compound 0.0316 µM, first compound 0.000316 µM) of 82.8%, a viability, T/C (second compound 0.0316 µM, first compound 0.001 µM) of 95.9% and a viability, T/C (second compound 0.0316 µM, first compound 0.00316 µM) of 77.7%. The viability, T/C (second compound 0.0316 µM, first compound 0.01 µM) was 89.3%, the viability, T/C [5] was 95.2% and the viability, T/C [6] was 81.6%. It also gave a viability, T/C (second compound 0.1 µM, first compound 0.000316 µM) of 104%, a viability, T/C (second compound 0.1 µM, first compound 0.001 µM) of 82.4% and a viability, T/C (second compound 0.1 µM, first compound 0.00316 µM) of 82.4%. It also gave a viability, T/C (second compound 0.1 µM, first compound 0.01 µM) of 80.8%, a viability, T/C [7] of 88.4% and a viability, T/C [8] of 74.7%. The viability, T/C (second compound 0.316 µM, first compound 0.000316 µM) was 68.3%, the viability, T/C (second compound 0.316 µM, first compound 0.001 µM) was 65.2% and the viability, T/C (second compound 0.316 µM, first compound 0.00316 µM) was 75.5%. The viability, T/C (second compound 0.316 µM, first compound 0.01 µM) was 59.7%, the viability, T/C [9] was 60.6% and the viability, T/C [10] was 68.4%. The viability, T/C (second compound 1 µM, first compound 0.000316 µM) was 65.7%, the viability, T/C (second compound 1 µM, first compound 0.001 µM) was 50.8% and the viability, T/C (second compound 1 µM, first compound 0.00316 µM) was 61.6%. It also gave a viability, T/C (second compound 1 µM, first compound 0.01 µM) of 62.7%, a viability, T/C [11] of 68.8% and a viability, T/C [12] of 55.7%.
